How the values were obtained:
[1] = system: ID8 Mouse Ovarian Surface Epithelial Cell Line; assay: Toxicity assay (cell morphology by light microscopy); assay type: cell-based; conditions: 1 μM compound, cells grown for 2 days, morphology checked using light microscopy
Protocol: Immediately, 1 μM compound was added to the media and cells were grown for 2 days and morphology checked using light microscopy.

[2] = system: ovaries (primordial, primary and secondary follicles); assay: Evaluation of follicle numbers after ovary organ culture with compound; assay type: cell-based, C57BL/6j×CBA F1 hybrid mice; conditions: ovaries of 7-day-old female pups cultured four days; 0.5 μM and 1 μM for 582 and 583, 25 μM for 798 and 798 (so in the source)
Protocol: C57BL/6j×CBA F1 hybrid mice (Janvier Labs, France) were housed and bred in the animal facilities at Department of Biomedicine, Aarhus University. Animals were housed in a 12:12 h controlled light-dark environment and were provided with food and water ad libitum. 7-day-old female pups were used for the study.
Pups were sacrificed and ovaries were excised. Using a stereomicroscope MZ75 (Leica Microsystems, Germany), excess tissue was removed. […] 200-300 μL of culture medium was added to the well below the insert and up to two ovaries were placed on the membrane of each insert. […] Up to six wells in the 24-well plate were used for inserts. […] The ovaries were cultured at 37° C., 5% CO2 for four days. 150 μL of medium was replaced every other day with fresh culture medium.
Ovaries kept in organ culture for four days were fixed for 24 hours in 4% paraformaldehyde solution at 4° C. After fixation, ovaries were dehydrated in ethanol series using 70%, 96% and 99.9% ethanol. Xylene was used as clearing agent before the ovaries were infiltrated in paraffin wax. 5 μm-sections of samples in paraffin were cut using a microtome (Cut 6062, SLEE medical, Germany). […] The samples were then rinsed in dH2O, stained in hematoxylin for 40 sec., rinsed in dH2O for 5 min., and stained in eosin for 46 sec. The samples were dehydrated in ethanol: 2×2 min. in 96% ethanol, 2×2 min in 99.9% ethanol, and finally cleared up in xylene for at least 30 min before mounting the samples using Eukitt mounting medium (Sigma-Aldrich) and cover glass. […] The follicles of every 3rd to 4th section of each ovary were counted and the distribution of follicles in the different stages in percentage was determined.

Row | Structure (SMILES) | toxicity to the grown cells / alteration of the morphology of the cells [1] | overall appearance and size of the ovaries in culture (visual inspection of ovarian sections) [2]
1 | NC(=O)c1ccc[n+](Cc2ccccc2)c1 [Compound 582, 1-benzyl-3-carbamoylpyridin-1-ium] | not to alter the morphology of the cells nor to be toxic to the grown cells | healthy and the size was normal, no shrinkage was observed
2 | C[n+]1cccc(C(N)=O)c1 [Compound 583, 3-carbamoyl-1-methylpyridin-1-ium] | not to alter the morphology of the cells nor to be toxic to the grown cells | healthy and the size was normal, no shrinkage was observed
3 | NC(=O)c1ccc[n+](C2CCOCC2)c1 [Compound 798, 3-carbamoyl-1-(tetrahydro-2H-pyran-4-yl)pyridin-1-ium] | not to alter the morphology of the cells nor to be toxic to the grown cells | healthy and the size was normal, no shrinkage was observed
4 | CC1=C2C[C@H]3[C@@H](CC=C4C[C@@H](O)CC[C@@]43C)[C@@H]2CC[C@]12O[C@@H]1C[C@H](C)CN[C@H]1[C@H]2C [cyclopamine, Cyclopamine, reference compound] | not to alter the morphology of the cells nor to be toxic to the grown cells | –

From US20230086706A1, “Compounds for promoting follicle maturation” (Aarhus Universitet, priority 2020, published 2023)
